From PubChem BioAssay AID328 (DTP/NCI, 2004)
“And” between values parts separate entries of the source, which are not always exact repeats. Identical values can stand only once. Inconclusive results and toxic doses are left out.

Test system: BDF1 mice, P388 leukemia ip, median survival T/C
Test: NCI In Vivo Anticancer Drug Screen. Data for tumor model P388 Leukemia (intraperitoneal) in B6D2F1 (BDF1) mice
Settings: endpoint: median survival time, higher = longer survival
Summary of the method: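 Survival ratio, drug arm over vehicle arm, in mice with a transplanted tumour.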

[1] = dose: 50.0 mg/kg/injection, schedule: Q01DX009 (ip), vehicle: saline with Tween-80
[2] = dose: 100.0 mg/kg/injection, schedule: Q01DX009 (ip), vehicle: saline with Tween-80
[3] = dose: 200.0 mg/kg/injection, schedule: Q01DX009 (ip), vehicle: saline with Tween-80
[4] = dose: 25.0 mg/kg/injection, schedule: Q04DX003 (ip), vehicle: saline
[5] = dose: 50.0 mg/kg/injection, schedule: Q04DX003 (ip), vehicle: saline
[6] = dose: 25.0 mg/kg/injection, schedule: Q01DX009 (ip), vehicle: saline

O=NN(CCCl)C(=O)Nc1ccc(CCCl)cc1
T/C (dose: 37.5 mg/kg/injection, schedule: Q01DX009 (ip), vehicle: other): 90 % of control | T/C (dose: 37.5 mg/kg/injection, schedule: Q04DX003 (ip), vehicle: other): 120 % of control | T/C (dose: 66.0 mg/kg/injection, schedule: Q04DX003 (ip), vehicle: other): 90 % of control | T/C (dose: 75.0 mg/kg/injection, schedule: Q01DX009 (ip), vehicle: other): 100 % of control | T/C (dose: 75.0 mg/kg/injection, schedule: Q04DX003 (ip), vehicle: other): 120 % of control | T/C (dose: 99.0 mg/kg/injection, schedule: Q04DX003 (ip), vehicle: other): 95 % of control | T/C (dose: 150.0 mg/kg/injection, schedule: Q01DX009 (ip), vehicle: other): 105 % of control | T/C (dose: 150.0 mg/kg/injection, schedule: Q04DX003 (ip), vehicle: other): 255 % of control and 95 % of control | T/C (dose: 225.0 mg/kg/injection, schedule: Q04DX003 (ip), vehicle: other): 100 % of control

CN(C)c1ccc(/C=C/c2ccc3ccccc3[n+]2[O-])cc1
T/C [1]: 99 % of control | T/C [2]: 97 % of control | T/C [3]: 117 % of control

O=Cc1nc2ccccc2c2ccccc12
T/C (dose: 100.0 mg/kg/injection, schedule: Q01DX001 (ip), vehicle: saline sonified): 100 % of control | T/C (dose: 200.0 mg/kg/injection, schedule: Q01DX001 (ip), vehicle: saline sonified): 100 % of control | T/C (dose: 400.0 mg/kg/injection, schedule: Q01DX001 (ip), vehicle: saline sonified): 100 % of control

COC(=O)C1C(O)C(C)C(O)C(C)/C=C\C=C(C)C(=O)Nc2c(C)c(OC(C)=O)c3c(c2O)C(=O)C(C)=C2OCOC(=C23)C(C)=CC(C)(O)C(O)C(C)C1O (stereo not drawn)
T/C (dose: 100.0 mg/kg/injection, schedule: Q01DX009 (ip), vehicle: Klucel (hydroxypropylcellulose) (HPC)): 115 % of control | T/C (dose: 200.0 mg/kg/injection, schedule: Q01DX009 (ip), vehicle: Klucel (hydroxypropylcellulose) (HPC)): 108 % of control and 115 % of control | T/C (dose: 400.0 mg/kg/injection, schedule: Q01DX009 (ip), vehicle: Klucel (hydroxypropylcellulose) (HPC)): 106 % of control

C=CCC(B1OCCO1)B1OCCO1
T/C [4]: 95 % of control | T/C [5]: 90 % of control | T/C (dose: 100.0 mg/kg/injection, schedule: Q04DX003 (ip), vehicle: saline): 100 % of control

CCS/C(N)=N\N
T/C (dose: 12.5 mg/kg/injection, schedule: Q01DX009 (ip), vehicle: saline): 100 % of control | T/C [6]: 104 % of control | T/C [4]: 109 % of control | T/C [5]: 104 % of control

Cc1nnc2n1N=C(c1ccc(O)c(O)c1O)CS2
T/C [1]: 94 % of control | T/C [2]: 93 % of control | T/C [3]: 107 % of control

O=C(O)CCCNSc1ccccc1[N+](=O)[O-]
T/C [2]: 124 % of control

C[N+](C)(C)CCOC(=O)c1ccccc1
T/C [2]: 109 % of control | T/C [3]: 117 % of control | T/C (dose: 400.0 mg/kg/injection, schedule: Q01DX009 (ip), vehicle: saline with Tween-80): 102 % of control

Nc1nc(=O)c2[nH]cnc2n1O
T/C (dose: 13.75 mg/kg/injection, schedule: Q01DX009 (ip), vehicle: saline): 90 % of control | T/C (dose: 27.5 mg/kg/injection, schedule: Q01DX009 (ip), vehicle: saline): 95 % of control

C=CCOc1c(C)cc(C(C)(C)c2cc(C)c(OCC=C)c(C)c2)cc1C
T/C (dose: 25.0 mg/kg/injection, schedule: Q01DX001 (ip), vehicle: other): 104 % of control | T/C (dose: 50.0 mg/kg/injection, schedule: Q01DX001 (ip), vehicle: other): 109 % of control | T/C (dose: 100.0 mg/kg/injection, schedule: Q01DX001 (ip), vehicle: other): 95 % of control

CC(=O)OC(C(=O)NCc1ccccc1)C(OC(C)=O)C(C)OS(C)(=O)=O (stereo not drawn)
T/C [1]: 98 % of control | T/C [2]: 106 % of control | T/C [3]: 89 % of control

O=C1NCN(c2ccccc2)C12CCNCC2
T/C [6]: 90 % of control | T/C (dose: 50.0 mg/kg/injection, schedule: Q01DX009 (ip), vehicle: saline): 113 % of control | T/C (dose: 100.0 mg/kg/injection, schedule: Q01DX009 (ip), vehicle: saline): 100 % of control
